The supplement of paper PMC10307832

Assays:
Assay in all cases: relative viability (nuclei count vs DMSO), 5 days (fraction); higher = more cells survive
[1] = compound: CC(C)CCN1c2nc(Nc3cc(F)c(O)c(F)c3)ncc2N(C)C(=O)C1C [BI-D1870] + O=C(c1cc(Cc2n[nH]c(=O)c3ccccc23)ccc1F)N1CCN(C(=O)C2CC2)CC1 [Olaparib] (partner 8 µM)
Method in brief: (§1)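 Cells from lung cancer lines were seeded into 1536-well plates and, one day later, dosed by pin tool. Treatments were either a single drug or a fixed dose of an anchor drug with five library-drug doses (not always all listed) in √10 steps. After 5 days, nuclei were stained in a one-step fixation (final 0.05% Triton X-100, 1% formaldehyde, 1 ug/ml Hoechst) and counted on 4× images, and relative viability is the treated-to-vehicle nuclei ratio, as the median of duplicate plates.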

[2] = compound: CC(C)CCN1c2nc(Nc3cc(F)c(O)c(F)c3)ncc2N(C)C(=O)C1C [BI-D1870] + CC(C)C[C@H](NC(=O)[C@H](Cc1ccccc1)NC(=O)c1cnccn1)B(O)O [Bortezomib] (partner 0.002 µM)
Method in brief: as §1

[3] = compound: CC(C)CCN1c2nc(Nc3cc(F)c(O)c(F)c3)ncc2N(C)C(=O)C1C [BI-D1870] + Cc1cc(Nc2cc(N3CCN(C)CC3)nc(Sc3ccc(NC(=O)C4CC4)cc3)n2)n[nH]1 [Tozasertib] (partner 0.1 µM)
Method in brief: as §1

[4] = compound: CC(C)CCN1c2nc(Nc3cc(F)c(O)c(F)c3)ncc2N(C)C(=O)C1C [BI-D1870] + CS(=O)(=O)CCNCc1ccc(-c2ccc3ncnc(Nc4ccc(OCc5cccc(F)c5)c(Cl)c4)c3c2)o1 [Lapatinib] (partner 2 µM)
Method in brief: as §1

Cell Line	relative viability ([1]; first compound 0.04 µM)	relative viability ([1]; first compound 0.1265 µM)	relative viability ([1]; first compound 0.4 µM)	relative viability ([1]; first compound 1.265 µM)	relative viability ([1]; first compound 4 µM)	relative viability ([2]; first compound 0.04 µM)	relative viability ([2]; first compound 0.1265 µM)	relative viability ([2]; first compound 0.4 µM)	relative viability ([2]; first compound 1.265 µM)	relative viability ([2]; first compound 4 µM)	relative viability ([3]; first compound 0.04 µM)	relative viability ([3]; first compound 0.1265 µM)	relative viability ([3]; first compound 0.4 µM)	relative viability ([3]; first compound 1.265 µM)	relative viability ([3]; first compound 4 µM)	relative viability ([4]; first compound 0.04 µM)	relative viability ([4]; first compound 0.1265 µM)	relative viability ([4]; first compound 0.4 µM)	relative viability ([4]; first compound 1.265 µM)	relative viability ([4]; first compound 4 µM)
SK-LU-1	0.497	0.377	0.41	0.427	0.35	1.16	1.07	1.04	1.49	0.823	0.365	0.276	0.262	0.339	0.204	0.922	0.894	0.791	0.793	0.462
NCI-H1975	0.869	0.708	0.784	0.731	0.499	0.487	0.44	0.386	0.339	0.175	0.79	0.509	0.223	0.176	0.145	1.1	0.865	0.858	0.863	0.464
NCI-H1651	0.2	0.157	0.175	0.187	0.178	1.06	0.943	0.885	1.01	0.903	0.9	0.487	0.784	0.647	0.344	0.828	0.666	0.769	0.892	0.647
LCLC-97TM1	0.521	0.33	0.38	0.634	0.301	0.833	0.693	0.734	0.957	0.372	0.302	0.289	0.221	0.225	0.186	1.35	0.988	0.622	1.3	0.916
